Series [1] concerns aortic rings (macrovascular sprouting). Nature of the series: Aortic ring sprouting assay (ex vivo aortic ring explants). It is filed as cell-based, mouse. As to the method: Tie2-CYP2C8Tg, Tie2-sEHTg, sEH−/− mice and littermate wild-type mice were anesthetized and perfused intracardiacly with warm PBS. Aortae were dissected free, cut into 1-mm-thick rings and embedded in 304, of growth factor-reduced Matrigel™ (BD Biosciences, Cat. 354230) in 24-well tissue culture plates. 5004, CSC complete medium (Cell Systems, Cat. 420-500) activated with growth factor Boost, was then added to each well and incubated at 37° C. with 5% CO2 for 48 hours before any treatment. Medium contained 5 units/mL of Penicillin/Streptomycin (GIBCO, Cat. 15142) to prevent contamination.
DHA (Cayman Chemical, Cat. 90310, 30 μM) and AA (Cayman Chemical, Cat. 90010, 30 μM) were introduced to the culture medium 48 hours after seeding of aortic ring from Tie2-CYP2C8Tg and littermate wild-type control. 17(18)-EpETE (EEQ) (Cayman Chemical, Cat. 50861, 1 μM), 19(20)-EpDPE (EDP) (Cayman Chemical, Cat. 10175, 1 μM) and 14,15-EE-8(Z)-E (EET) (Cayman Chemical, Cat. 10010486, 1 μM) were administered to the culture medium 48 hours after seeding of aortic ring from Tie2-sEHTg, sEH−/− and their wild-type littermate controls. Medium was changed every 48 hours for all groups. Phase contrast photos of individual explants were taken 168 hours after plating (120 hours after treatment) using a ZEISS Axio Oberver.Z1 microscope. The areas of macrovascular sprouting were quantified with computer software ImageJ 1.46r (National Institute of Health). A semi-automated macro plugin for quantification of vessel sprouts is available from the authors.

For series [2], the system named is human retinal microvascular endothelial cells (HRMEC). Nature of the series: HRMEC migration. The following applies: for rescue of the inhibition of HRMEC migration by FA: with FA. The format is cell-based.
The test system is the same in series [3]. Nature of the series: HRMEC tubule formation. It is filed as cell-based.
Series [4] concerns neovascularization (NV) in oxygen-induced retinopathy. The series is described as follows: Oxygen-induced retinopathy (OIR) mouse model, quantification of retinal neovascularization. As to conditions: for magnitude of the extent of reduction in NV, Cyp2C8 Tg mice compared to WT mice: 10 mg/kg/day GV, mice fed ω3 (n3) or ω6 (n6). The format is in vivo. The procedure:
Mouse model of OIR is described^13. C57BL/6J mice were analyzed by immunohistochemistry, real-time PCR, western blot, blood smear and LC/MS/MS oxylipid analysis. Mothers of Cyp and sEH mutant mice were fed ω3PUFA or ω6PUFA-enriched diets in OIR followed by analysis of retina, plasma and aortic ring sprouting.
The mouse model of oxygen-induced retinopathy has been previously described (Smith et al. Invest Ophthalmol Vis Sci 35: 101-111). To induce vessel loss, mice were exposed to 75% oxygen from postnatal day 7 (P7) to P12. The central retinal vessel obliteration induced by hyperoxic exposure will trigger an excessive angiogenic response that causes neovascularization. Mice were given lethal doses of Avertin (Sigma) intraperitoneally at P17 when the neovascular response is greatest.
For dietary experiments, polyunsaturated fatty acids (PUFAs), arachidonic acid (AA) and docosahexaenoic acid (DHA) supplements under the trade names ROPUFA, ARASCO and DHASCO, respectively, were obtained from DSM Nutritional Products (dsmnutritionalproducts.com) and were integrated into the rodent feed at Research Diets Incorporated (researchdiets.com/). […] Upon delivery, dams were fed a defined rodent diet with 10% (w/w) safflower oil containing either 2% ω-6 PUFAs (AA) and no ω-3 PUFAs (DHA and EPA), or 2% ω-3 PUFAs and no ω-6 PUFAs.
OIR eyes were enucleated and fixed in 4% paraformaldehyde for 1 hour at 4° C. Retinas were dissected and stained overnight at 23° C. with Alexa Fluor 594 fluoresceinated Griffonia Bandereiraea Simplicifolia Isolectin B4 (Molecular Probes, Cat. 121413, 1:100 dilution) in 1 mM CaCl2 in PBS. Following 2 hours of washes, retinas were whole-mounted onto Superfrost/Plus microscope slides (Fisher, Cat. 12-550-15) with the photoreceptor side up and embedded in SlowFade Antifade reagent (Invitrogen, Cat. S2828). For quantification of retinal neovascularization, 20 images of each whole-mounted retina were obtained at 5× magnifications on a Zeiss AxioObserver.Z1 microscope and merged to form one image with AxioVision 4.6.3.0 software. Vaso-obliteration was quantified using Adobe Photoshop and neovascularization was analysed with the SWIFT_NV method on ImageJ 1.46r (NIH) software, as described previously (Stahl et al. Angiogenesis 12: 297-301).

`CCCCCC1OC1C/C=C\C/C=C\C/C=C\CCCC(=O)O` (stereo not shown) [14,15-EET, 14,15-EE-8(Z)-E]: in series [1] (1 μM), the “aortic ring sprouting compared between WT, Tie2-sEH-Tg and sEH−/− mice” value is given as “similar”.
Consider `CCC1OC1C/C=C\C/C=C\C/C=C\C/C=C\CCCC(=O)O` (stereo not shown) [17,18-EEQ, 17(18)-EpETE], for which the “aortic ring sprouting compared between WT, Tie2-sEH-Tg and sEH−/− mice” value in series [1] (1 μM) is given as “no difference”. Moreover, in series [2], the “rescue of the inhibition of HRMEC migration by FA” value is recorded as “partially rescuing”.
Turning to `CCC1OC1C/C=C\C/C=C\C/C=C\C/C=C\C/C=C\CCC(=O)O` (stereo not shown) [19,20-EDP, 19(20)-EpDPE], in series [1] (1 μM), the “less sprouting, treated Tie2-sEH-Tg aortic ring versus WT” value is 50%. Moreover, the “rescue of FA inhibition of aortic ring sprouting” value in series [1] (rings from WT & Cyp2C8 Tg mice, with FA) was “partially rescued”. In series [2], the “rescue of the inhibition of HRMEC migration by FA” value was “partially rescuing”. Further, the “rescue of the inhibition of HRMEC tubule formation by FA” value in series [3] (with FA) is reported as “partially rescued”.
Turning to `CCCCC/C=C\C/C=C\C/C=C\C/C=C\CCCC(=O)O` [AA, arachidonic acid], the “potentiation of aortic sprouting, AA vs. DHA” value in series [1] (30 μM, Tie2-CYP2C8-Tg rings) is given as “abolished”. For the same molecule, in series [1] (30 μM, WT rings), the “aortic sprouting, AA vs. DHA” value is listed as “potentiated aortic sprouting”.
Take `CC/C=C\C/C=C\C/C=C\C/C=C\C/C=C\C/C=C\CCC(=O)O` [DHA, docosahexaenoic acid]: in series [1] (DHA treatment 30 μM), the “aortic sprouting, Tie2-CYP2C8-Tg versus WT” value is “increased sprouting”.
Take `CCC(=O)NC[C@H](Cc1ccc(OCCc2nc(-c3ccccc3)oc2C)cc1)N/C(C)=C\C(=O)c1ccc(C(F)(F)F)cc1` [GW6471]: the “impact upon the effect of FA on aortic ring sprouting” value in series [1] (rings from WT and Cyp2C8 Tg mice, with FA) is “no impact”. The “impact upon the effect of fenofibrate on HRMEC migration” value in series [2] (with FA/fenofibrate) is recorded as “no impact”. For the same molecule, the “impact upon the effect of fenofibrate on HRMEC tubule formation” value in series [3] (with fenofibrate) is reported as “no impact”.
Regarding `CC(C)OC(=O)C(C)(C)Oc1ccc(C(=O)c2ccc(Cl)cc2)cc1` [fenofibrate], in series [4], the “magnitude of the extent of reduction in NV, Cyp2C8 Tg mice compared to WT mice” value is recorded as “enhanced in mice that overexpressed CYP2C8”. In addition, the neovascularization entry in series [4] (Cyp2C8 overexpressing transgenic (Tg) mice, ω3 and ω6 LCPUFA feed, low dose) is listed as “decreased neovascularization”; in series [4] (WT mice, ω3 and ω6 LCPUFA feed, low dose), “decreased neovascularization”. The “neovascularization (NV)” value in series [4] (JAX (WT) mice, normal feed, high dose 100 mg/kg/day GV) is “significant reduction in neovascularization”; in series [4] (JAX (WT) mice, normal feed, low dose 10 mg/kg/day GV) it was “significant reduction in neovascularization”; in series [4] (PPARα knockout mice, normal feed, high dose 100 mg/kg/day GV) it was “significant reduction in neovascularization”; in series [4] (PPARα knockout mice, normal feed, low dose 10 mg/kg/day GV) it was “significant reduction in neovascularization”. Besides, the HRMEC tubule formation entry in series [3] is listed as “inhibit HRMEC tubule formation”.
In the case of `CC(C)(O)c1ccccc1CC[C@@H](SCC1(CC(=O)O)CC1)c1cccc(/C=C/c2ccc3ccc(Cl)cc3n2)c1` [montelukast], the HRMEC migration result in series [2] is given as “inhibited”. The “magnitude of the extent of reduction in NV, Cyp2C8 Tg mice compared to WT mice” value in series [4] was “enhanced in mice that overexpressed CYP2C8”. In addition, the neovascularization result in series [4] (JAX (WT) mice, normal feed, dose not given) is given as “reduced in a statistically significant manner”. Further, in series [3], the HRMEC tubule formation entry was “clear dose-response curves”.

Values taken from patent US20160339008A1, “METHODS OF TREATING OR PREVENTING VASCULAR DISEASES OF THE RETINA” (Children's Medical Center Corporation, priority 2013, published 2016).
